Results as given in PubChem BioAssay AID1963422 (Molecular Pharmacology Branch, DTP, NCI, 2024).

Test system: 463943-066-T-J2-PDC complex spheroid growth
Test: Anticancer human tumor 463943-066-T-J2-PDC patient-derived colon adenocarcinoma cell line growth inhibition [Asc]
Details: for IC50: curve of first compound; for viability, T/C: stronger effect = lower value; active means viability on the fitted dose curve at most 10% of control; inactive means the rest
Method in brief: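 Spheroid model: tumor line + HUVEC + hMSC. Single agents and combinations; top conc. at/near clinical Cmax (10 microM if undetermined), half-log dilutions. DMSO stocks at 800-fold test concentration.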
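Further: compound exposure lasted 7 days.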
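Wherever viability, T/C is given: 100% = DMSO vehicle control wells.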

CCN1CCN(Cc2ccc(Nc3ncc(F)c(-c4cc(F)c5nc(C)n(C(C)C)c5c4)n3)nc2)CC1 + CCN1C(C(=O)NC23CCC(C(=O)O)(CC2)CC3)C(c2cccc(Cl)c2F)C2(C(=O)Nc3cc(Cl)ccc32)C12CCCCC2
inactive: viability, T/C (second compound 0.00949 µM, first compound 0.00316 µM) 99.6% | viability, T/C (second compound 0.00949 µM, first compound 0.01 µM) 92.3% | viability, T/C (second compound 0.00949 µM, first compound 0.0316 µM) 91.4% | viability, T/C (second compound 0.00949 µM, first compound 0.1 µM) 96.2% | viability, T/C (second compound 0.00949 µM, first compound 0.316 µM) 110% | viability, T/C (second compound 0.00949 µM, first compound 1 µM) 113% | viability, T/C (second compound 0.03 µM, first compound 0.00316 µM) 94.8% | viability, T/C (second compound 0.03 µM, first compound 0.01 µM) 93.2% | viability, T/C (second compound 0.03 µM, first compound 0.0316 µM) 92.7% | viability, T/C (second compound 0.03 µM, first compound 0.1 µM) 92.5% | viability, T/C (second compound 0.03 µM, first compound 0.316 µM) 104% | viability, T/C (second compound 0.03 µM, first compound 1 µM) 109% | viability, T/C (second compound 0.0949 µM, first compound 0.00316 µM) 91.4% | viability, T/C (second compound 0.0949 µM, first compound 0.01 µM) 90.8% | viability, T/C (second compound 0.0949 µM, first compound 0.0316 µM) 84.2% | viability, T/C (second compound 0.0949 µM, first compound 0.1 µM) 92% | viability, T/C (second compound 0.0949 µM, first compound 0.316 µM) 96.2% | viability, T/C (second compound 0.0949 µM, first compound 1 µM) 106% | viability, T/C (second compound 0.3 µM, first compound 0.00316 µM) 85.6% | viability, T/C (second compound 0.3 µM, first compound 0.01 µM) 76.9% | viability, T/C (second compound 0.3 µM, first compound 0.0316 µM) 80.3% | viability, T/C (second compound 0.3 µM, first compound 0.1 µM) 78% | viability, T/C (second compound 0.3 µM, first compound 0.316 µM) 88.9% | viability, T/C (second compound 0.3 µM, first compound 1 µM) 106% | viability, T/C (second compound 0.949 µM, first compound 0.00316 µM) 74.5% | viability, T/C (second compound 0.949 µM, first compound 0.01 µM) 75.5% | viability, T/C (second compound 0.949 µM, first compound 0.0316 µM) 76.2% | viability, T/C (second compound 0.949 µM, first compound 0.1 µM) 75.4% | viability, T/C (second compound 0.949 µM, first compound 0.316 µM) 81.5% | viability, T/C (second compound 0.949 µM, first compound 1 µM) 99.4% | viability, T/C (second compound 3 µM, first compound 0.00316 µM) 72.5% | viability, T/C (second compound 3 µM, first compound 0.01 µM) 71.8% | viability, T/C (second compound 3 µM, first compound 0.0316 µM) 71.8% | viability, T/C (second compound 3 µM, first compound 0.1 µM) 74.4% | viability, T/C (second compound 3 µM, first compound 0.316 µM) 88.8% | viability, T/C (second compound 3 µM, first compound 1 µM) 103%
> 1000 nM: IC50 (second compound 0.00949 µM) | IC50 (second compound 0.03 µM) | IC50 (second compound 0.0949 µM) | IC50 (second compound 0.3 µM) | IC50 (second compound 0.949 µM) | IC50 (second compound 3 µM)

NC(=O)C(=Cn1cnc(-c2cc(C(F)(F)F)cc(C(F)(F)F)c2)n1)c1cncnc1 + CCN1C(C(=O)NC23CCC(C(=O)O)(CC2)CC3)C(c2cccc(Cl)c2F)C2(C(=O)Nc3cc(Cl)ccc32)C12CCCCC2
> 300 nM: IC50 (second compound 0.00949 µM) | IC50 (second compound 0.03 µM) | IC50 (second compound 0.0949 µM)
inactive: viability, T/C (second compound 0.00949 µM, first compound 0.000949 µM) 94.2% | viability, T/C (second compound 0.00949 µM, first compound 0.003 µM) 91.3% | viability, T/C (second compound 0.00949 µM, first compound 0.00949 µM) 82.5% | viability, T/C (second compound 0.00949 µM, first compound 0.03 µM) 87.4% | viability, T/C (second compound 0.00949 µM, first compound 0.0949 µM) 81% | viability, T/C (second compound 0.00949 µM, first compound 0.3 µM) 63.7% | viability, T/C (second compound 0.03 µM, first compound 0.000949 µM) 99.5% | viability, T/C (second compound 0.03 µM, first compound 0.003 µM) 92.6% | viability, T/C (second compound 0.03 µM, first compound 0.00949 µM) 81% | viability, T/C (second compound 0.03 µM, first compound 0.03 µM) 84.9% | viability, T/C (second compound 0.03 µM, first compound 0.0949 µM) 78.8% | viability, T/C (second compound 0.03 µM, first compound 0.3 µM) 62.5% | viability, T/C (second compound 0.0949 µM, first compound 0.000949 µM) 86.8% | viability, T/C (second compound 0.0949 µM, first compound 0.003 µM) 84.9% | viability, T/C (second compound 0.0949 µM, first compound 0.00949 µM) 80.7% | viability, T/C (second compound 0.0949 µM, first compound 0.03 µM) 78.6% | viability, T/C (second compound 0.0949 µM, first compound 0.0949 µM) 70.6% | viability, T/C (second compound 0.0949 µM, first compound 0.3 µM) 54.5% | viability, T/C (second compound 0.3 µM, first compound 0.000949 µM) 78.7% | viability, T/C (second compound 0.3 µM, first compound 0.003 µM) 75.4% | viability, T/C (second compound 0.3 µM, first compound 0.00949 µM) 68.7% | viability, T/C (second compound 0.3 µM, first compound 0.03 µM) 67.5% | viability, T/C (second compound 0.3 µM, first compound 0.0949 µM) 51.2% | viability, T/C (second compound 0.3 µM, first compound 0.3 µM) 44.5% | viability, T/C (second compound 0.949 µM, first compound 0.000949 µM) 68.1% | viability, T/C (second compound 0.949 µM, first compound 0.003 µM) 67.3% | viability, T/C (second compound 0.949 µM, first compound 0.00949 µM) 61% | viability, T/C (second compound 0.949 µM, first compound 0.03 µM) 52.1% | viability, T/C (second compound 0.949 µM, first compound 0.0949 µM) 37.8% | viability, T/C (second compound 0.949 µM, first compound 0.3 µM) 34.8% | viability, T/C (second compound 3 µM, first compound 0.000949 µM) 66% | viability, T/C (second compound 3 µM, first compound 0.003 µM) 63.6% | viability, T/C (second compound 3 µM, first compound 0.00949 µM) 56.9% | viability, T/C (second compound 3 µM, first compound 0.03 µM) 40% | viability, T/C (second compound 3 µM, first compound 0.0949 µM) 30.4% | viability, T/C (second compound 3 µM, first compound 0.3 µM) 29%
32.6 nM: IC50 (second compound 0.949 µM)
15.1 nM: IC50 (second compound 3 µM)
156 nM: IC50 (second compound 0.3 µM)
